According to ChEMBL document CHEMBL1909046, “DrugMatrix in vitro pharmacology data”:

What was measured:
[1] = biological target: Aldo-keto reductase family 1 member B1 (Rattus norvegicus, UniProt P07943); assay: biochemical; format: tissue-based, Lens of camera-type eye;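 note: inhibition of aldose reductase enzyme activity, measured with DL-glyceraldehyde as the substrate; in other assays of this panel Not Active means under 50% inhibition at 10 µM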
[2] = biological target: T1, 5-hydroxytryptamine receptor 2C (Homo sapiens, UniProt P28335); assay: DRUGMATRIX: Serotonin (5-Hydroxytryptamine) 5-HT2C radioligand binding (ligand: [3H] Mesulergine); format: cell membranes, CHO-K1, Membrane; settings: cho-k1; Not Active = under 50% inhibition at 10 µM
T1 sequence (P28335 whole entry): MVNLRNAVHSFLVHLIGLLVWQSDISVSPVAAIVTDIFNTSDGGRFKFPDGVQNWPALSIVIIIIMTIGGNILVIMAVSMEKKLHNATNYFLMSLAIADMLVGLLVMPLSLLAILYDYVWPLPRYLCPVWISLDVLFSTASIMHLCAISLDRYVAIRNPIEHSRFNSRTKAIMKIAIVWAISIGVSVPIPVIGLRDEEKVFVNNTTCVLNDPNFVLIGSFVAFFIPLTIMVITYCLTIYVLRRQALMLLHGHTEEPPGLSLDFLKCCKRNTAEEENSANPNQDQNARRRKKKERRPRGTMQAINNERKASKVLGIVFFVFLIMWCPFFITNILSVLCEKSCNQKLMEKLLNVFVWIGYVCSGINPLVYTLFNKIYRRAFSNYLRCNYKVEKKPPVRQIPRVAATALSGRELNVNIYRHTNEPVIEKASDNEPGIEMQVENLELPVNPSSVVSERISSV

Substance-P receptor = Substance-P receptor (Homo sapiens, UniProt P25103); format: cell membranes, Membrane; settings: cho; note: in other assays of this panel Not Active means under 50% inhibition at 10 µM
[3] = DRUGMATRIX: Calcium Channel Type L, Phenylalkylamine radioligand binding (ligand: [3H] (-)-Desmethoxyverapamil (D-888)); format: cell membranes, Rattus norvegicus, Wistar, Brain, Membrane; settings: Not Active = under 50% inhibition at 10 µM
[4] = DRUGMATRIX: Leukotriene, BLT (LTB4) radioligand binding (ligand: [3H]LTB4); format: cell membranes, Membrane; settings: u-937; Not Active = under 50% inhibition at 10 µM

Chain of Substance-P receptor (P25103 whole entry): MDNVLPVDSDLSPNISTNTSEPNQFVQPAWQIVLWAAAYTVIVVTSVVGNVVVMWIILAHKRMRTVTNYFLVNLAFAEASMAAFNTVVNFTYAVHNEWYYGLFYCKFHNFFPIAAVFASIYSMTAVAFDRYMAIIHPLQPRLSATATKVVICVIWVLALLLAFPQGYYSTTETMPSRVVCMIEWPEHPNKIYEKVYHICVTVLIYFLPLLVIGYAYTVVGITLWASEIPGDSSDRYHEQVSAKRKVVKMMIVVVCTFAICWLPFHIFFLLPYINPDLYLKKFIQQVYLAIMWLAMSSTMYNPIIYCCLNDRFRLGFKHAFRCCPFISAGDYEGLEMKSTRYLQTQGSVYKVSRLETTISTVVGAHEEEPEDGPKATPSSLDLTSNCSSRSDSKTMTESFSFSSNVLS

C=C(Cl)Cl [1,1-DICHLOROETHENE]
Not Active: IC50 [1] | IC50 [2] | IC50 (Substance-P receptor) | IC50 [3] | Ki [3] | IC50 [4] | Ki [4]

C#C[C@]1(O)CC[C@H]2[C@@H]3CCC4=CC(=O)CC[C@@H]4[C@H]3CC[C@@]21C [NORETHINDRONE]
Not Active: IC50 [1] | IC50 [2] | IC50 (Substance-P receptor) | IC50 [3] | Ki [3] | IC50 [4] | Ki [4]

C=CCN1CC[C@]23c4c5ccc(O)c4O[C@H]2/C(=N/N=C2\CC[C@@]4(O)[C@H]6Cc7ccc(O)c8c7[C@@]4(CCN6CC=C)[C@H]2O8)CC[C@@]3(O)[C@H]1C5 [NALOXONAZINE]
Not Active: IC50 [1] | IC50 [2] | IC50 (Substance-P receptor) | IC50 [3] | Ki [3] | IC50 [4] | Ki [4]

Oc1ncnc2[nH]ncc12 [ALLOPURINOL]
Not Active: IC50 [1] | IC50 [2] | IC50 (Substance-P receptor) | IC50 [3] | Ki [3] | IC50 [4] | Ki [4]

CCC1(c2ccccc2)C(=O)NC(=O)NC1=O [PHENOBARBITAL]
Not Active: IC50 [1] | IC50 [2] | IC50 (Substance-P receptor) | IC50 [3] | Ki [3] | IC50 [4] | Ki [4]

CHROMIC CHLORIDE
Not Active: IC50 [1] | Ki [1] | IC50 [2] | Ki [2] | IC50 (Substance-P receptor) | Ki (Substance-P receptor) | IC50 [3] | Ki [3] | IC50 [4] | Ki [4]

CCCCCCNC(=O)n1cc(F)c(=O)[nH]c1=O [CARMOFUR]
Not Active: IC50 [1] | IC50 [2] | IC50 (Substance-P receptor) | IC50 [3] | Ki [3] | IC50 [4] | Ki [4]

O=C(O)CCc1nc(-c2ccccc2)c(-c2ccccc2)o1 [OXAPROZIN]
Not Active: IC50 [1] | IC50 [2] | IC50 (Substance-P receptor) | IC50 [3] | Ki [3] | IC50 [4] | Ki [4]

CCN1C[C@]2(COC)[C@H](O)C[C@H](OC)[C@@]34[C@@H]5C[C@@]6(O)[C@H](OC(=O)c7ccccc7)[C@@H]5[C@@](OC(C)=O)([C@@H]([C@H](OC)[C@H]23)[C@@H]14)[C@@H](O)[C@@H]6OC [ACONITINE]
Not Active: IC50 [1] | IC50 [2] | IC50 (Substance-P receptor) | IC50 [3] | Ki [3] | IC50 [4] | Ki [4]

Oc1ccccc1 [PHENOL]
Not Active: IC50 [1] | IC50 [2] | IC50 (Substance-P receptor) | IC50 [3] | Ki [3] | IC50 [4] | Ki [4]

Nc1nc(F)nc2c1ncn2[C@@H]1O[C@H](CO)[C@@H](O)[C@@H]1O [FLUDARABINE]
Not Active: IC50 [1] | IC50 [2] | IC50 (Substance-P receptor) | IC50 [3] | Ki [3] | IC50 [4] | Ki [4]

O=C1CN(/N=C/c2ccc([N+](=O)[O-])o2)C(=O)N1 [NITROFURANTOIN]
Not Active: IC50 [1] | IC50 [2] | IC50 (Substance-P receptor) | IC50 [3] | Ki [3] | IC50 [4] | Ki [4]

CC12CCC(CC1=O)C2(C)C (centres undefined) [CAMPHOR]
Not Active: IC50 [1] | IC50 [2] | IC50 (Substance-P receptor) | IC50 [3] | Ki [3] | IC50 [4] | Ki [4]

Nc1nc(N)c2nc(CNc3ccc(C(=O)N[C@@H](CCC(=O)O)C(=O)O)cc3)cnc2n1 [AMINOPTERIN]
Not Active: IC50 [1] | IC50 [2] | IC50 (Substance-P receptor) | IC50 [3] | Ki [3] | IC50 [4] | Ki [4]

Cc1c(N)nc([C@H](CC(N)=O)NC[C@H](N)C(N)=O)nc1C(=O)N[C@H](C(=O)N[C@H](C)[C@@H](O)[C@H](C)C(=O)N[C@H](C(=O)NCCc1nc(-c2nc(C(=O)NCCC[S+](C)C)cs2)cs1)[C@@H](C)O)[C@@H](O[C@@H]1O[C@@H](CO)[C@@H](O)[C@H](O)[C@@H]1O[C@H]1O[C@H](CO)[C@@H](O)[C@H](OC(N)=O)[C@@H]1O)c1c[nH]cn1.[Br-] [BLEOMYCIN A2]
Not Active: IC50 [1] | IC50 [2] | IC50 (Substance-P receptor) | IC50 [3] | Ki [3] | IC50 [4] | Ki [4]

OC[C@H]1O[C@@H]2O[C@H]3[C@H](O)[C@@H](O)[C@@H](O[C@H]4[C@H](O)[C@@H](O)[C@@H](O[C@H]5[C@H](O)[C@@H](O)[C@@H](O[C@H]6[C@H](O)[C@@H](O)[C@@H](O[C@H]7[C@H](O)[C@@H](O)[C@@H](O[C@H]1[C@H](O)[C@H]2O)O[C@@H]7CO)O[C@@H]6CO)O[C@@H]5CO)O[C@@H]4CO)O[C@@H]3CO [ALFADEX]
Not Active: IC50 [1] | IC50 [2] | IC50 (Substance-P receptor) | IC50 [3] | Ki [3] | IC50 [4] | Ki [4]

O=C(O)CNCP(=O)(O)O [GLYPHOSATE]
Not Active: IC50 [1] | IC50 [2] | IC50 (Substance-P receptor) | IC50 [3] | Ki [3] | IC50 [4] | Ki [4]

O=C(Nc1ccc(Cl)c(Cl)c1)c1cc(Cl)cc(Cl)c1O [3,3',4',5-TETRACHLOROSALICYLANILIDE]
Not Active: IC50 [1] | IC50 [2] | IC50 (Substance-P receptor) | IC50 [3] | Ki [3] | IC50 [4] | Ki [4]
